Reference: ChEMBL document CHEMBL1201862, “PubChem BioAssay data set” (2004)
Calls of active or inactive are those of the source.

Legend:
[1] = biological target: Potassium voltage-gated channel subfamily KQT member 2 (Rattus norvegicus, UniProt O88943); assay: retigabine-insensitive KCNQ2 potentiators, concentration-response, dose response, cell-based, retigabine-insensitive compounds (AID 2654); assay type: functional
[2] = biological target: T1, Long-chain-fatty-acid--AMP ligase FadD28 (Mycobacterium tuberculosis, UniProt P9WQ59); assay: Fluorescence polarization aasay to screen for inhibitors that compete for the binding of FadD28 to a bisubstrate Measured in Biochemical System Using Plate Reader - 2147-01_Inhibitor_Dose_CherryPick_Activity.; assay type: functional, Mycobacterium tuberculosis H37Rv
T1 sequence (P9WQ59 whole entry): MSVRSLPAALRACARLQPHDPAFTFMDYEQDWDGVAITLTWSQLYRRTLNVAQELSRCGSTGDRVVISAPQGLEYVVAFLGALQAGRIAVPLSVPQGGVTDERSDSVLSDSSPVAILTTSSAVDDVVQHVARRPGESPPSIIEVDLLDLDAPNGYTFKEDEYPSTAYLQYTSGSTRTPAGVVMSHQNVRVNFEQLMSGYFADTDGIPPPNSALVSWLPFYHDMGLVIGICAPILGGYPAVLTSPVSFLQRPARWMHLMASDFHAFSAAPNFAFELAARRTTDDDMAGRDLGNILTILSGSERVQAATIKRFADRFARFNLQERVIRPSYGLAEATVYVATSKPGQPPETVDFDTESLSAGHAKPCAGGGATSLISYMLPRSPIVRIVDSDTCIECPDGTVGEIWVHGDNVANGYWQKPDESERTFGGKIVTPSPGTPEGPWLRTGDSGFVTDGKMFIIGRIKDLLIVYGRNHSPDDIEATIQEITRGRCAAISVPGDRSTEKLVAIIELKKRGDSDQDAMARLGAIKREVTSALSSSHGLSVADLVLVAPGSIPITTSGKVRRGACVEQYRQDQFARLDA

14-3-3 protein gamma = 14-3-3 protein gamma (Homo sapiens, UniProt P61981); assay: modulators of 14-3-3 gamma client binding – dose response (AID 711); assay type: functional
14-3-3 protein gamma, sequence (P61981 whole entry): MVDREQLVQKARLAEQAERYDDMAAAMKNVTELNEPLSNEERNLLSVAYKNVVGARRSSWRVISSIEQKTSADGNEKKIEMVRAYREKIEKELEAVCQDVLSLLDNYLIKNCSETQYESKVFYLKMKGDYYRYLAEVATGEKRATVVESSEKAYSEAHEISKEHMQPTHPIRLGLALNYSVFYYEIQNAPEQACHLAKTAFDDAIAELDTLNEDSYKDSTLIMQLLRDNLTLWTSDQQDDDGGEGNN

Genome polyprotein = Genome polyprotein (dengue virus type 2, UniProt P29990); assay: Dengue-2 NS5 methyltransferase inhibitors, primary screen, biochemical, confirmation dose response (AID 588689); assay type: functional
Genome polyprotein, sequence (P29990 2492-3391 limits assumed): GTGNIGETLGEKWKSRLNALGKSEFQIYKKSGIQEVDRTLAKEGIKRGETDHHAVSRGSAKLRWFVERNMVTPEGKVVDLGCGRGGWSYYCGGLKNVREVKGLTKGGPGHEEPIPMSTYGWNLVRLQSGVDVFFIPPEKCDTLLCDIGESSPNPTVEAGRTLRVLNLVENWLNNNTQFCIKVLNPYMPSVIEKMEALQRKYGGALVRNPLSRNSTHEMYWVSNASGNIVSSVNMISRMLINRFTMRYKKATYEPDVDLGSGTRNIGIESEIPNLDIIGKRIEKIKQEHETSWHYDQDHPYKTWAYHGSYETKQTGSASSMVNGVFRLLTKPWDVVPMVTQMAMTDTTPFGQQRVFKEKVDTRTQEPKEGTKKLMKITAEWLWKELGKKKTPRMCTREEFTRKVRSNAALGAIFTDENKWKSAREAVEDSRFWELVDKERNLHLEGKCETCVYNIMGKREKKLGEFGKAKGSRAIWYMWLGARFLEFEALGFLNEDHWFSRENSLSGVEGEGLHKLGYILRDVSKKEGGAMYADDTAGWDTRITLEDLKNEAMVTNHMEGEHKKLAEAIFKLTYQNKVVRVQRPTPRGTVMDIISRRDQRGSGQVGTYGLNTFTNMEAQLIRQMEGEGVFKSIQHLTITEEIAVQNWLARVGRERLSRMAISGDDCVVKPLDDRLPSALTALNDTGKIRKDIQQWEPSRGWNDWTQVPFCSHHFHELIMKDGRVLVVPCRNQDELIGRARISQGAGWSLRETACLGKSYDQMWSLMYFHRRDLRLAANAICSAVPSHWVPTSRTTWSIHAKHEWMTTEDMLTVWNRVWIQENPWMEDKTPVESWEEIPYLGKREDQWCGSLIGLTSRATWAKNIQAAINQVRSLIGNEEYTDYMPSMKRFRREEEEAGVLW

Protein Rev = Protein Rev (Human immunodeficiency virus type 1 group M subtype B (isolate HXB2)(HIV-1), UniProt P04618); assay: inhibitors of Rev binding to RRE RNA, dose response, biochemical, fluorescence polarization, HIV-1 (AID 434976); parameters: species or system Human immunodeficiency virus 1
Protein Rev, sequence (P04618 whole entry): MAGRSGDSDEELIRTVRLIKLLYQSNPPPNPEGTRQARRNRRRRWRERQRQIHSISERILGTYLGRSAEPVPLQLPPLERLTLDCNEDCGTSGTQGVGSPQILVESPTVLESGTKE

[3] = biological target: Female germline-specific tumor suppressor gld-1 (Caenorhabditis elegans, UniProt Q17339); assay: inhibitors of GLD-1 binding to TGE RNA, dose response, biochemical, fluorescence polarization, C. elegans (AID 2802);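 further: fluorescence polarization of labeled TGE RNA bound by purified gld-1 protein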
Female germline-specific tumor suppressor gld-1, sequence (Q17339 whole entry): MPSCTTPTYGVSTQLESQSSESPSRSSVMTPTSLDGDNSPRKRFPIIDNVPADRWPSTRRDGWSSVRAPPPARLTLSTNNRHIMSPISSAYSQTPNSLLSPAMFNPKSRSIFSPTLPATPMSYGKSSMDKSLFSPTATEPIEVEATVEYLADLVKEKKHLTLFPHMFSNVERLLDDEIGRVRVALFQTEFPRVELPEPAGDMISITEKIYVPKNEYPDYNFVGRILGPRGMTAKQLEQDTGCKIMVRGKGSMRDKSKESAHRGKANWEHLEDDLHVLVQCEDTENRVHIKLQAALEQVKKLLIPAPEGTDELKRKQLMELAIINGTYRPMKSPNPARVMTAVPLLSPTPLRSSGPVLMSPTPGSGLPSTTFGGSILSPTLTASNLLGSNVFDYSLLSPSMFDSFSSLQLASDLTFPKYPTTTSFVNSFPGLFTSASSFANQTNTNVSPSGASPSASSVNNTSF

Caspase-3 [4] = biological target: T2, Caspase-3 (Homo sapiens, UniProt P42574); assay: procaspase-3 activation potency of dual hits, dose response, counter-screen for dual procaspase-3/7 activator project, biochemical, absorbance, PC-3 D3A mutant (AID 504328)
T2 sequence (P42574 whole entry): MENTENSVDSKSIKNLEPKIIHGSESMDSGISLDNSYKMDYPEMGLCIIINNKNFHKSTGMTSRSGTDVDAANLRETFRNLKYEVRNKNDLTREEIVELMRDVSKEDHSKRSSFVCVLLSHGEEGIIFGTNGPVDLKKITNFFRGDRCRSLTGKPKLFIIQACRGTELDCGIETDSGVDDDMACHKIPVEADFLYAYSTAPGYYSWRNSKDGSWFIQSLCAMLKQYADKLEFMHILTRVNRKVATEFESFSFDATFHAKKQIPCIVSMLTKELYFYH

Cytochrome P450 2D6 = Cytochrome P450 2D6 (Homo sapiens, UniProt P10635);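 further: CYP2D6 member of a cytochrome P450 panel assay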
Cytochrome P450 2D6, sequence (P10635 whole entry): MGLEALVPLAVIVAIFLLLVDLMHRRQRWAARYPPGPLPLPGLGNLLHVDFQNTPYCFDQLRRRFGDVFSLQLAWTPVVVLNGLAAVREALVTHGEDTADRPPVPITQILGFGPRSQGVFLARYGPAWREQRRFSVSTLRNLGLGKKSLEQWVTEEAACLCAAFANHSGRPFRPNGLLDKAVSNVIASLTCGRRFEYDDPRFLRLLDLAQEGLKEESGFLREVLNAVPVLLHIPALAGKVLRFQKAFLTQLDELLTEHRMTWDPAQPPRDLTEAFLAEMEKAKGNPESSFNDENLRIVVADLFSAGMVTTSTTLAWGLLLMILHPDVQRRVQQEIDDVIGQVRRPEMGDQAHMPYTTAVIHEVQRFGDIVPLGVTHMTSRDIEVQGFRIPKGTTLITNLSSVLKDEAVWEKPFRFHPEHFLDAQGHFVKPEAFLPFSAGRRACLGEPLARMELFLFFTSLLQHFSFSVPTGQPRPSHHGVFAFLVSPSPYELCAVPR

Caspase-7 [5] = biological target: T3, Caspase-7 (Homo sapiens, UniProt P55210); assay: procaspase-7 activators, dose response, dual procaspase-3/-7 activator project, biochemical, absorbance, human (AID 504330)
T3 sequence (P55210 whole entry): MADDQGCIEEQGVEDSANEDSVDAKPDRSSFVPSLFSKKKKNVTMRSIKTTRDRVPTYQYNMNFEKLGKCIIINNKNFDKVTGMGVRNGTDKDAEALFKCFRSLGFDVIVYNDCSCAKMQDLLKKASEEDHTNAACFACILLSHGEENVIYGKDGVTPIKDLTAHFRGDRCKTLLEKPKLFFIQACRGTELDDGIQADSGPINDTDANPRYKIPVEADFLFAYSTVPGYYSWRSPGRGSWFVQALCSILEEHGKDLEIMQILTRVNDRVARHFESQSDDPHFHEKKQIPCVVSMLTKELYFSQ

[6] = inhibitors of HIV Env-driven cell fusion, dose response, cherry-pick (AID 652057); assay type: functional, cell-based
Caspase-6 = biological target: T4, Caspase-6 (Homo sapiens, UniProt P55212); assay: human caspase-6 inhibitors, dose response, biochemical, VEID-R110 fluorescence, cherry-pick (AID 720632)
T4 sequence (P55212 whole entry): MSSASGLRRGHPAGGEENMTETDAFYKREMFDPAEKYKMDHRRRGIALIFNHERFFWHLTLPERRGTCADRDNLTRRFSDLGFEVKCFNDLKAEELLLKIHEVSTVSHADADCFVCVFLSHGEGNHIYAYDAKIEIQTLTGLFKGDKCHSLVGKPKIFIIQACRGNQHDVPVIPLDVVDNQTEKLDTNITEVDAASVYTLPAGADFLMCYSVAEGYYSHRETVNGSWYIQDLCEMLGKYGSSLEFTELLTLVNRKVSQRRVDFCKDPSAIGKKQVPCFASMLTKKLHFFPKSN

[7] = Shn3 3'UTR reporter inhibitors, dose response, cell-based, Clone20 osteoblasts, firefly luciferase, cherry-picked (AID 624132); assay type: functional;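 further: firefly luciferase luminescence from reporter carrying the Shn3 3'UTR in osteoblasts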
[8] = HepG2 cell cytotoxicity, dose response, cytotoxicity control for Shn3 inhibitor project, CellTiter-Glo, cherry-picked (AID 624134); assay type: functional, cell-based
[9] = biological target: T5, Zinc finger protein mex-5 (Caenorhabditis elegans, UniProt Q9XUB2); assay: MEX-5/TCR-2 RNA interaction inhibitors, dose response, biochemical, C. elegans, fluorescence polarization (AID 1960)
T5 sequence (Q9XUB2 whole entry): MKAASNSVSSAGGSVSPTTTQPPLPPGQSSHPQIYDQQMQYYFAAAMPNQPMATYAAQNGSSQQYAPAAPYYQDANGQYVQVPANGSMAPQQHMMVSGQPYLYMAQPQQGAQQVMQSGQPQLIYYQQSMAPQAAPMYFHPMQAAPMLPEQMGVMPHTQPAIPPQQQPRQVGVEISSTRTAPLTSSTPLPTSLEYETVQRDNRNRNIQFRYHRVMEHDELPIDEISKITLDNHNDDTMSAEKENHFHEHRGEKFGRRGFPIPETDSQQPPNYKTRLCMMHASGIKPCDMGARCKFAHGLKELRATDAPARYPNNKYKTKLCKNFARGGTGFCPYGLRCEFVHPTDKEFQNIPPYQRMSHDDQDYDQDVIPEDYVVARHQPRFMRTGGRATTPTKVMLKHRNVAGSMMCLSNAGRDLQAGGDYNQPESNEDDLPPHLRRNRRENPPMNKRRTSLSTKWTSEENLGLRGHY

[10] = control 3'UTR Renilla luciferase suppression, dose response, counter-screen for Shn3 inhibitor project, cell-based, Clone20-Shn3RL, cherry-picked (AID 624133); assay type: functional
Caspase-3 [11] = biological target: T2, Caspase-3; assay: caspase-3 enzyme inhibitors, selectivity check, dose response, selectivity assay for caspase-6 allosteric inhibitor project, biochemical, fluorescence, cherry-picked samples (AID 743291)
[12] = NIH-3T3 fibroblast cytotoxicity, dose response, cytotoxicity control, cell-based, fluorescence, Alamar Blue, secondary assay (AID 2327); assay type: functional;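 further: NIH-3T3 mouse fibroblasts cultured with fluconazole at 8 µg/mL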
Caspase-8 = Caspase-8 (Homo sapiens, UniProt Q14790); assay: caspase-8 inhibition counter-screen, dose response, selectivity assay for caspase-6 inhibitor project, biochemical, Z-IETD-R110 fluorescence, cherry-picked samples (AID 743294)
Caspase-8, sequence (Q14790 217-374 limits assumed): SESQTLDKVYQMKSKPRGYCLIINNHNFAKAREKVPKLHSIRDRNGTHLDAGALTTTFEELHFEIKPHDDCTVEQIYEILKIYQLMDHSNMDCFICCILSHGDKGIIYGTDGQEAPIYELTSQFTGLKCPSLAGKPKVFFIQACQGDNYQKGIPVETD
Caspase-8, sequence (Q14790 385-479 limits assumed): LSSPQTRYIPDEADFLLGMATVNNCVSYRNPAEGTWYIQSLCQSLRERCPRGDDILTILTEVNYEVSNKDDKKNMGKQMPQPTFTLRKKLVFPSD

Caspase-7 [13] = biological target: T3, Caspase-7; assay: human caspase-7 inhibitors, dose response, selectivity assay for caspase-6 inhibitor project, biochemical, DEVD-R110 fluorescence, cherry-pick (AID 743295)
[14] = biological target: T6, RNA-binding protein pos-1 (Caenorhabditis elegans, UniProt G5EF15); assay: inhibitors of POS-1/mex-3 RNA binding, dose response, biochemical, fluorescence polarization (AID 1964);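 further: purified POS-1 fused to maltose binding protein made in E. coli; potency of compounds blocking POS-1 binding to fluorescent RNA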
T6 sequence (G5EF15 whole entry): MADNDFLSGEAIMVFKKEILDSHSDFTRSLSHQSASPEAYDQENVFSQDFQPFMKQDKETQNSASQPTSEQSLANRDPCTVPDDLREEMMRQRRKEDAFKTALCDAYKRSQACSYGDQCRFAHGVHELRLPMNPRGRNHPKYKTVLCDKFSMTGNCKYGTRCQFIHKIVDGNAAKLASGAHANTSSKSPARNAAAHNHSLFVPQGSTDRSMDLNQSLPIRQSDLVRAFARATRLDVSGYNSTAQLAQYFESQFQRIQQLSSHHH

[15] = biological target: T7, Apoptotic protease-activating factor 1 (Homo sapiens, UniProt O14727); assay type: functional
T7 sequence (O14727 whole entry): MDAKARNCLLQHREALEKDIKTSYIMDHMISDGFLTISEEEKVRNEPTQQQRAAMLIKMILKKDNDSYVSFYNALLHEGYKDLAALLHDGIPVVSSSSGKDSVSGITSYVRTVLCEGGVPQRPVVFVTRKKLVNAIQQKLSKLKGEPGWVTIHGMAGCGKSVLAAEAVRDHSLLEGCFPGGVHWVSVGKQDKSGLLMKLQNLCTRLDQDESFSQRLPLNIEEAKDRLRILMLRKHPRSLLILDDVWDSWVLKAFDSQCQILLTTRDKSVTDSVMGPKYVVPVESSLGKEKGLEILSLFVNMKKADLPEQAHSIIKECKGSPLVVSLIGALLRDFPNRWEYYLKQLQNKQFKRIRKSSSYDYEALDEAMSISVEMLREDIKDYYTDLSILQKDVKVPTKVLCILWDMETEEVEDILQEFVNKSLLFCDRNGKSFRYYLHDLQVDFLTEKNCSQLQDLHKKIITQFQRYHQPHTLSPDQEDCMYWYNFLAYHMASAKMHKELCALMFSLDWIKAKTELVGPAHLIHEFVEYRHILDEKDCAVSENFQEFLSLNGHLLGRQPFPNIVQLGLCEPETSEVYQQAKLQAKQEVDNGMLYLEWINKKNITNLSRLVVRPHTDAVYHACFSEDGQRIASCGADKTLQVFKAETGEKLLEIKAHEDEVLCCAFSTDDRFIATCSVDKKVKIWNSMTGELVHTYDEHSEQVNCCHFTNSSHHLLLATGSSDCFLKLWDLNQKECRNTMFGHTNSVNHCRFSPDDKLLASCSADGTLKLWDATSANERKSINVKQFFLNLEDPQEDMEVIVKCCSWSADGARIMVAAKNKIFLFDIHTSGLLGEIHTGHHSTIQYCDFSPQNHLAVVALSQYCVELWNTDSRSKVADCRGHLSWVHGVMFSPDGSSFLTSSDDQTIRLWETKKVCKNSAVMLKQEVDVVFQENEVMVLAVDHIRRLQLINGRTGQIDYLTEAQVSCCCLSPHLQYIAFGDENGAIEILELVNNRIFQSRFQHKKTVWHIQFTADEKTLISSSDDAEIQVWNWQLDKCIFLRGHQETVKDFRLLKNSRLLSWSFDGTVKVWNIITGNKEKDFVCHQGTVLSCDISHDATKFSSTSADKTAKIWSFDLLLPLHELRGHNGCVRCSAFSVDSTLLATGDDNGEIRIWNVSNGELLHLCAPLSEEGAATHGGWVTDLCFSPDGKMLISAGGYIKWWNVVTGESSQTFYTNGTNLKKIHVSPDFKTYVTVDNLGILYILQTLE

[16] = C. albicans growth with fluconazole, confirmation, fluorescence, retest (AID 2467); assay type: functional, cell-based
[17] = biological target: G-protein coupled receptor 35 (Homo sapiens, UniProt Q9HC97); assay: GPR35 antagonists blocking zaprinast-driven arrestin recruitment, primary screen, imaging, U2OS, beta-arrestin-GFP, zaprinast agonist (AID 2058); assay type: functional;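 further: antagonist potency meaning inhibition of agonist-induced arrestin redistribution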
G-protein coupled receptor 35, sequence (Q9HC97 whole entry): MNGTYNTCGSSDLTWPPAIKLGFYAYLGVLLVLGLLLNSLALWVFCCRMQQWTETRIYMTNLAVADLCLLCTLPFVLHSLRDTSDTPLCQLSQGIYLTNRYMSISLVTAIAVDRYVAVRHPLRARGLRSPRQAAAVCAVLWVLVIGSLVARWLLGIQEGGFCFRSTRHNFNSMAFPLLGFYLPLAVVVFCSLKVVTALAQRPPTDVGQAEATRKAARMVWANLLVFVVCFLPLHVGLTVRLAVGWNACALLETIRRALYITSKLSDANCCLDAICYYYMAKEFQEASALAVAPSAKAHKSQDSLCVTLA

Potassium voltage-gated channel subfamily KQT member 2, sequence (O88943 whole entry): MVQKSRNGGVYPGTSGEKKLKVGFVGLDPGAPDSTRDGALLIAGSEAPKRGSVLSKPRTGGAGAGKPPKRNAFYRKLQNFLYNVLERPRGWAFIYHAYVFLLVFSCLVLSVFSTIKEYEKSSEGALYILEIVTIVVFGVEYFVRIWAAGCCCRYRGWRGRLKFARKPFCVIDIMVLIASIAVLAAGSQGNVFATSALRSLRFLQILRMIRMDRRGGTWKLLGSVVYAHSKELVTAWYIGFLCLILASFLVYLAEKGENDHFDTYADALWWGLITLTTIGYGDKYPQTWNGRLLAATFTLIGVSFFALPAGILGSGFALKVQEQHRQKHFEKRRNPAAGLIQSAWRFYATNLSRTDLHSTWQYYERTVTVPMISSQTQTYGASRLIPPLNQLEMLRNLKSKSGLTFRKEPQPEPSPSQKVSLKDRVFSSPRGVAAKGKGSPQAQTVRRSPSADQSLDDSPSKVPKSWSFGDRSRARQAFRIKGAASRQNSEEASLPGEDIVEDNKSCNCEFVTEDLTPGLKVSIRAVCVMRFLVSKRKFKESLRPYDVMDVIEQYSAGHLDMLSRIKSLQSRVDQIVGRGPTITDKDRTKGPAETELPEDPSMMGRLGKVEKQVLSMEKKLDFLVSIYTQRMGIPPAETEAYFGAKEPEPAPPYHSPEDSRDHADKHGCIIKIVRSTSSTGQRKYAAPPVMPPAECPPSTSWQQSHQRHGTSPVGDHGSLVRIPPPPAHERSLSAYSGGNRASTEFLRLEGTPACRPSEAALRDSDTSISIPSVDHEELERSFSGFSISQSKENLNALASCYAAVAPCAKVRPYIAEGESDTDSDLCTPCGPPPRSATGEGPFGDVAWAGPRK

In the case of `Cc1ccc(NC(=O)Nc2cccnc2)cc1`, the EC50 [1] is reported as 128 µM (active).

With `CCn1c(CSc2nnc3ccccn23)nc2cc(C(=O)O)ccc21` the AC50 [2] was 50.1 µM (active), the IC50 (14-3-3 protein gamma) was 0.853 µM (active) and the IC50 (Genome polyprotein) was 23.2 µM (active). The IC50 (Protein Rev) was > 75.4 µM (not active) and the IC50 [3] was 11.2 µM (inactive).

For `COc1ccc(Nc2ncc(C(=O)N3CCN(c4ccc(F)cc4)CC3)c3ccccc23)cc1`, the EC50 (Caspase-3 [4]) was > 85.2 µM (inactive), the AC50 (Cytochrome P450 2D6) was 31.6 µM (inconclusive) and the EC50 (Caspase-7 [5]) was > 85.2 µM (inactive). The AC50 [6] was 49 µM (active).

In the case of `CCOc1ccc2nc3cc(NCc4ccc(OC)cc4)ccc3c(N)c2c1`, the AC50 (Caspase-6) is reported as 4.3 µM (active), the AC50 [7] is reported as 6.69 µM (active) and the AC50 [8] is reported as 16.5 µM (active). The EC50 [9] was 3.94 µM (active), the AC50 [10] was 23 µM (active) and the AC50 (Caspase-3 [11]) was 21.2 µM (active). For the same compound, the EC50 [12] was > 150 µM (inconclusive), the AC50 (Caspase-8) was 25.9 µM (active) and the AC50 (Caspase-7 [13]) was 9.75 µM (active). The EC50 [14] was 4.47 µM (active), the IC50 [15] was 23.5 µM (active) and the EC50 [16] was 2.76 µM (active). The IC50 [17] was 15.3 µM (inactive).
